Source: BindingDB's records for doi:10.1016/j.bioorg.2016.12.002 (China Pharmaceutical University, 2017)

target: Hepatocyte growth factor receptor/Proto-oncogene tyrosine-protein kinase receptor Ret (Homo sapiens, UniProt P07949+P08581); experiment: In Vitro c-Met Enzyme Assay
Method: The c-Met kinase activity as tested with enzyme-linked immunosorbent assays (ELISAs) as previously reported protocol [Qiang et al., Bioorg. Med. Chem., 24:3353-3358; Shi et al., Bioorg. Med. Chem., 22:4735-4744]. Briefly, reaction cocktail containing c-met kinase and various concentrations of measured compound or 0.1% DMSO (negative control) was incubated at 37 °C for five minutes. Then the mixture of ATP and substrate peptide was added and incubated for another 30 min. Afer that, the reaction was terminated and transferred into a pre-coated 96-well plate, and incubated for another 1 h at 37 °C. Phosphate-buffered saline (PBS) containing 0.1% Tween 20 (T-PBS) was applied to wash the plate three times. anti-phosphotyrosine (PY99) antibody was then added. Horseradish peroxidase-conjugated goat anti-mouse IgG was added after 30 min. Finally, the plate was analyzed with multi-well spectrophotometer at […].

Sequence of Hepatocyte growth factor receptor/Proto-oncogene tyrosine-protein kinase receptor Ret (P08581 whole entry): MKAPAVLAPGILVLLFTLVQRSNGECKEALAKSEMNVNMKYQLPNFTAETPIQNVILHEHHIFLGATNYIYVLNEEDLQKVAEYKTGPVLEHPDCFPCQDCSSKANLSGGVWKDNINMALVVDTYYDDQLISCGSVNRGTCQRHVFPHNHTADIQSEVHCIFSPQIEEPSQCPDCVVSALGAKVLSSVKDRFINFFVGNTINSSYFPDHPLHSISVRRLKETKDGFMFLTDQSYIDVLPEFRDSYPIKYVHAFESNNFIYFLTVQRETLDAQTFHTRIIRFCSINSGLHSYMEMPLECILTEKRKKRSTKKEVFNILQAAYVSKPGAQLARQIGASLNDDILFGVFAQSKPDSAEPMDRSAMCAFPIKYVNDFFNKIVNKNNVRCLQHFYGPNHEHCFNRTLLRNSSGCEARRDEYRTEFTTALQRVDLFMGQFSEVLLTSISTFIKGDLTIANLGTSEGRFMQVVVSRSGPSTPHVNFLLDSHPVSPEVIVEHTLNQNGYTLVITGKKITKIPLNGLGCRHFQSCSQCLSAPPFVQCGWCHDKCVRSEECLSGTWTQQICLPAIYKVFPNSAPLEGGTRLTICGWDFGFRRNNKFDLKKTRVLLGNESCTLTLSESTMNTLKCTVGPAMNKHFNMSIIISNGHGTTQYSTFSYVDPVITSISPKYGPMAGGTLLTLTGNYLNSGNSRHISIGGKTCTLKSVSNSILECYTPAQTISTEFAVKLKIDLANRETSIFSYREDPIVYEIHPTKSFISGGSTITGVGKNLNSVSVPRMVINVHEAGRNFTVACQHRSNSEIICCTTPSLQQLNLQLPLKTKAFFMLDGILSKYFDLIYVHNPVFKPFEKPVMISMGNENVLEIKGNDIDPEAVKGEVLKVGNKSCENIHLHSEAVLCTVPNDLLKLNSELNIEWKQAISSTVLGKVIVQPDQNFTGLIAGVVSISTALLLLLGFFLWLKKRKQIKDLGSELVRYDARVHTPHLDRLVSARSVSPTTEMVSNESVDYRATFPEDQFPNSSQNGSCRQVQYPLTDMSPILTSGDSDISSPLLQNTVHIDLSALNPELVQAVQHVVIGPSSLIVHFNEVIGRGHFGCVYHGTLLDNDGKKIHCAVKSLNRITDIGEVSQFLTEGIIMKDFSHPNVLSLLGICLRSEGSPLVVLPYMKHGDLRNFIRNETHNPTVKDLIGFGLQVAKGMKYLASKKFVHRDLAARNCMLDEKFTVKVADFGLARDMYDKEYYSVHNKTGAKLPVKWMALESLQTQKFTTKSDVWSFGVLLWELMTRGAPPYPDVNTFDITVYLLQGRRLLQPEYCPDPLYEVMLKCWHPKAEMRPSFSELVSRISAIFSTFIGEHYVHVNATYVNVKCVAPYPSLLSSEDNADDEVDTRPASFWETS
Sequence of Hepatocyte growth factor receptor/Proto-oncogene tyrosine-protein kinase receptor Ret (P07949 whole entry): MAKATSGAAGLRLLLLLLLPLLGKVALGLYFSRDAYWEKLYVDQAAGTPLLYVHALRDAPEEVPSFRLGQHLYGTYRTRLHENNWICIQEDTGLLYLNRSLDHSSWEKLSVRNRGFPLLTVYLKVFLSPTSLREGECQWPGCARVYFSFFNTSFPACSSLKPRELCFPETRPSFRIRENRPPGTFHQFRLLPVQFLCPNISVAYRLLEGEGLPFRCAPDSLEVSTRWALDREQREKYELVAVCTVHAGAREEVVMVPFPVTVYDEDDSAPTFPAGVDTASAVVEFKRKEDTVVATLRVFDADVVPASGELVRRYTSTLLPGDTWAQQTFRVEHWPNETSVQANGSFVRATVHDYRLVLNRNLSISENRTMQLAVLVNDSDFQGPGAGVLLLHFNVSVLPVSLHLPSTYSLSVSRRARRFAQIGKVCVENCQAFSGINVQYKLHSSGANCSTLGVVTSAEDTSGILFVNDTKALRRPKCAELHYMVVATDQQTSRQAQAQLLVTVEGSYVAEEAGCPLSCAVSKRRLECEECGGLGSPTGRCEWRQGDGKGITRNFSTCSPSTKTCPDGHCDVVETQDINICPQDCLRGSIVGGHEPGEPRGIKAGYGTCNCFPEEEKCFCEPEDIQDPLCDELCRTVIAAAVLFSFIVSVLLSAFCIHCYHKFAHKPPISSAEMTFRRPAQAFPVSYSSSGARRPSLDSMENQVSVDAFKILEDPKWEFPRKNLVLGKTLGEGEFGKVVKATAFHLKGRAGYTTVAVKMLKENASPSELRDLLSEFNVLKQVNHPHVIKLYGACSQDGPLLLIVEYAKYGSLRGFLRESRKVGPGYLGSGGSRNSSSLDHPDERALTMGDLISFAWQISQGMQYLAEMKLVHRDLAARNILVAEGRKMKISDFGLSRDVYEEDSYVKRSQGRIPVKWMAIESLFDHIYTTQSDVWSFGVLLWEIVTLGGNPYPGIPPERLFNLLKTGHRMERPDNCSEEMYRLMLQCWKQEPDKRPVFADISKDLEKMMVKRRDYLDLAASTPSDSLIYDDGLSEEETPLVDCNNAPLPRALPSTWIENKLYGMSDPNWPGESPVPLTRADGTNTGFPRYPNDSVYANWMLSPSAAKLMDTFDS

IC50 [µM] | Structure (SMILES)
0.06 | COc1ccc2c(OCc3nnc4ccc(-c5ccccc5)nn34)ccnc2c1 [7-methoxy-4-({6-phenyl-[1,2,4]triazolo[4,3-a]pyridazin-3-yl}methoxy)quinoline]
12.3 | Clc1ccc(Cl)c(-c2cn3cccc(COc4nnc5ccc(Cl)nn45)c3n2)c1 [6-chloro-3-((2-(2,5-dichlorophenyl)imidazo[1,2-a]pyridin-8-yl)methoxy)-[1,2,4]triazolo[4,3-b] pyridazine (7e)]
12.2 | Clc1ccc(-c2cn3cccc(COc4nnc5ccc(Cl)nn45)c3n2)c(Cl)c1 [6-Chloro-3-((2-(2,4-dichlorophenyl)imidazo[1,2-a]pyridin-8-yl)methoxy)-[1,2,4]triazolo[4,3-b] pyridazine (7g)]
